Test [1] has as its target Prostaglandin G/H synthase 1 (Homo sapiens, UniProt P23219).
Test [2] in a line: Inhibition of cyclooxygenase.
A short description of test [3]: Selectivity for COX1 over COX2.
Test [4] can be described thus: Inhibition of mouse COX2 Y355F mutant.
Test [5] is described as follows: Inhibition of mouse COX2 S530A mutant.
Test [6] in a line: Inhibition of mouse COX2 R120A mutant.
Test [7] concerns the target T1, Prostaglandin G/H synthase 2 (Homo sapiens, UniProt P35354).
T1 sequence (P35354 whole entry): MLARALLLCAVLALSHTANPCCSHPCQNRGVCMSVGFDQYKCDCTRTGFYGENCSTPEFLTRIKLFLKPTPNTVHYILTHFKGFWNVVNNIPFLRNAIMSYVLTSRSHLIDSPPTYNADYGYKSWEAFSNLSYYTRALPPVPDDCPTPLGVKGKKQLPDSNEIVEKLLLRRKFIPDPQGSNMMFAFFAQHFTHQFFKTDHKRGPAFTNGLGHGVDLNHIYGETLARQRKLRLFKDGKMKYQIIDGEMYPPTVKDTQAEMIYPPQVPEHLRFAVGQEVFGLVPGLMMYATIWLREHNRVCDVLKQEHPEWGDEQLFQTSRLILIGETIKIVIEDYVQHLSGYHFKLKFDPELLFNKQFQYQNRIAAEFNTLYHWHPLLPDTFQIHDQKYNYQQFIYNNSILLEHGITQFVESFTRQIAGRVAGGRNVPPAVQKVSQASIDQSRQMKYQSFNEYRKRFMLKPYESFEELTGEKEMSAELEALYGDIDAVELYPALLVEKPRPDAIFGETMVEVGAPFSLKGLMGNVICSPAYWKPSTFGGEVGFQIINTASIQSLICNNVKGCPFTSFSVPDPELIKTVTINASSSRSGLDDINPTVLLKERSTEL

The species entered for test [8] is Mus musculus. Put plainly: Inhibition of mouse COX2 V349A mutant.
The species named for test [9] is Mus musculus. Kind of test: Inhibition of mouse COX2 V349L mutant.

SMILES strings stand for the structures. Where only a bound is given, the exact number is not on record here.

The text below walks through data of ChEMBL document CHEMBL1141454, “Structural and functional basis of cyclooxygenase inhibition” (J Med Chem, 2007).

Chain of Prostaglandin G/H synthase 1 (P23219 whole entry): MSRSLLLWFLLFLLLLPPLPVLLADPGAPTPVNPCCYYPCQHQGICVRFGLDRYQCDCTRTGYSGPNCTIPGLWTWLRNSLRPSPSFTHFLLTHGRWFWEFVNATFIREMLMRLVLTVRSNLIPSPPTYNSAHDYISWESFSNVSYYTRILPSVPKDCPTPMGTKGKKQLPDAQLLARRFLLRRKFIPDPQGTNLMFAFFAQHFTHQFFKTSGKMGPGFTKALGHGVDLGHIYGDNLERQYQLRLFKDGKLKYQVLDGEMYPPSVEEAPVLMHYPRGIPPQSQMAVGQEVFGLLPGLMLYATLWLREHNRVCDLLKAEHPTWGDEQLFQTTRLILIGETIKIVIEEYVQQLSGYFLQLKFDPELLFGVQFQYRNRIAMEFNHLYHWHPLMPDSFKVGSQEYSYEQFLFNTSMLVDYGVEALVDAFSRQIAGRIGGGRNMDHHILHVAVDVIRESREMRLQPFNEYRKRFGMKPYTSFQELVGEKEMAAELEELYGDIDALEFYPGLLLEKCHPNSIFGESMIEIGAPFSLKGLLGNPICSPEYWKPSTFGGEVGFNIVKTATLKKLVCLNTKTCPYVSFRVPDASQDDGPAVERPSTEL

What is called IC50 is the concentration needed to halve the response being measured. The low end stands for inhibition by little substance, the high end for a need for much substance. In turn, `COc1ccc2c(c1)c(CC(=O)NCCc1ccccc1)c(C)n2C(=O)c1ccc(Cl)cc1` registered a 50% inhibitory concentration (IC50) in test [1] of more than 66 µM. What is called Ki is a measure of affinity in units of concentration, obtained from inhibition or displacement. In the case of `CC(=O)Oc1ccccc1C(=O)O` [ASPIRIN], affinity in test [2] was put at a Ki of 20000 µM. In addition, the Selectivity ratio in test [3] is 10. As to `COc1ccc2c(c1)c(CCNC(=O)c1ccc(Cl)cc1)c(C)n2Cc1ccc(Br)cc1`, in [1], the half-maximal inhibitory concentration (IC50) is more than 66 µM. Consider `O=C(O)Cc1ccccc1Nc1c(Cl)cccc1Cl` [DICLOFENAC], for which the IC50 is 0.137 µM in test [4], more than 50 µM in test [5] and 0.257 µM in [6]. Turning to `CCOc1cccc(OCC)c1-c1ccc(C(C)C(=O)O)cc1F` (configuration not stated), the values for the IC50 in test [1] and in test [7] were 7.7 µM and 0.1 µM, respectively.

Take `Cc1ccc(Nc2c(F)cccc2Cl)c(CC(=O)O)c1` [LUMIRACOXIB]: the values for the IC50 in test [1] and in test [7] were more than 10 µM and 0.007 µM, respectively. As for `COc1ccc2c(c1)c(CC(=O)O)c(C)n2C(=O)c1ccc(Cl)cc1`, the Activity was determined as 0.08 µM in the test filed under Mus musculus [8] and 4 µM in the test filed under Mus musculus [9]. Turning to `C/C(=N/OCc1ccccc1Nc1c(Cl)cccc1Cl)C(=O)O`, the IC50 is more than 1 µM in test [1] and 0.1 µM in test [7].

With `COc1ccc2c(c1)c(CC(=O)OCCc1ccccc1)c(C)n2C(=O)c1ccc(Cl)cc1`, in [1], the half-inhibitory concentration (IC50) is more than 66 µM. On to `COc1ccc2c(c1)c(CCOC(=O)c1ccc(Cl)cc1)c(C)n2Cc1ccc(Br)cc1`, for which the IC50 in test [1] is more than 66 µM.
